Test results from US20230286995A1, “METABOLICALLY STABLE PYRIMIDINYL DIHYDROQUINOXALINONES AS TUBULIN POLYMERIZATION INHIBITORS” (UNIVERSITY OF TENNESSEE RESEARCH FOUNDATION, priority 2022, published 2023).
Read-outs that look alike come from different tables or passages of the source.

Legend:
M14 = test: Cytotoxicity assay (MTS, 72 h); conditions: Homo sapiens
A375 = test: Cytotoxicity assay (MTS, 72 h); conditions: Homo sapiens;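 also: compounds tested from 0.1 nM up to 3 µM in four replicate wells, with absorbance read at 490 nm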
Mia PaCa-2 = test: Cytotoxicity assay (MTS, 72 h); assay type: cell-based; conditions: Homo sapiens, Table 6, read-out: IC50 (nM) Pancreatic cancer Mia PaCa-2
MDA-MB-453 = test: Cytotoxicity assay (MTS, 72 h); assay type: cell-based, human
MDA-MB-231 = test: Cytotoxicity assay (MTS, 72 h); assay type: cell-based; conditions: Homo sapiens
PC3/TxR = test: Cytotoxicity assay (MTS, 72 h); assay type: cell-based; conditions: Homo sapiens, Table 6, paclitaxel-resistant, read-out: IC50 (nM) Prostate cancer PC3/TxR
Method: Biology. Cell culture and Reagents. […] MIA Paca-2 pancreatic cancer cells were cultured in media also supplemented with 2.5% horse serum. PANC-1 and PC-3 were cultured in RPMI 1640 medium (Gibco, Carlsbad, Calif.) supplemented with 10% FBS and 1% antibiotic/antimycotic mixture. […] For biological experiments, pyrimidine dihydroquinoxalinone derivatives were dissolved in DMSO to create 20 mM stock solutions and stored at −20° C. until use.
(§1) Cytotoxicity Assay. […] Each experiment consisted of four replicates.

PC3 = test: Cytotoxicity assay (MTS, 72 h); assay type: cell-based; conditions: Homo sapiens, PC-3; Table 6; read-out: IC50 (nM) Prostate cancer PC3
Excerpt: as §1

PANC-1 = test: Cytotoxicity assay (MTS, 72 h); assay type: cell-based; conditions: Homo sapiens, Table 6, read-out: IC50 (nM) Pancreatic cancer PANC-1
Method: Mia PaCa-2 and PANC-1 cells were seeded in 96-well plates at 4000 and 5000 cells per well, respectively.
as §1

RPMI-7951 = test: Cytotoxicity assay (MTS, 72 h); assay type: cell-based; conditions: Homo sapiens, Table 1, read-out: IC50 (nM) Melanoma RPMI-7951
MDA-MB-468 = test: Cytotoxicity assay (MTS, 72 h); assay type: cell-based, human; conditions: Table 1, read-out: IC50 (nM) Breast MDA-MB-468
logP = assay type: physicochemical; conditions: Table 1; method not described
[1] = tested on: human melanoma and breast cancer cell lines; test: Cytotoxicity, all tested cell lines of Table 1; assay type: cell-based; conditions: melanoma and breast lines of Table 1; for IC50: Homo sapiens, read-out: IC50 values, range over all tested cell lines
MDA-MB-231/VxR = test: Cytotoxicity assay (MTS, 72 h); assay type: cell-based; conditions: Homo sapiens, MDA-MB-231, read-out: IC50 ± SEM (nM) MDA-MB-231/VXR
A375/TxR = test: Cytotoxicity assay (MTS, 72 h); assay type: cell-based; conditions: Homo sapiens, read-out: IC50 ± SEM (nM) A375/TxR
[2] = tested on: melanoma, breast, pancreatic and prostate cancer cell lines; test: Cytotoxicity of Example 8 compounds; assay type: cell-based, human
Excerpt: as §1

in vitro [3] = conditions: mouse, liver microsomes
in vitro [4] = conditions: human, liver microsomes
[5] = M14, read-out: IC50 (nM) Melanoma Cancer M14
[6] = A-375, read-out: IC50 (nM) Melanoma Cancer A375, Table 6
[7] = Homo sapiens, MDA-MB-453, Table 6, read-out: IC50 (nM) Breast Cancer MDA-MB-453
[8] = MDA-MB-231, read-out: IC50 (nM) Breast Cancer MDA-MB-231, Table 6
[9] = M14, read-out: IC50 (nM) Melanoma M14
[10] = A-375, read-out: IC50 (nM) Melanoma A375, Table 1
[11] = Homo sapiens, MDA-MB-453, Table 1, read-out: IC50 (nM) Breast MDA-MB-453
[12] = MDA-MB-231, read-out: IC50 (nM) Breast MDA-MB-231, Table 1

| Compound | IC50 (M14; [5]) | IC50 (A375; [6]) | IC50 (Mia PaCa-2) | IC50 (MDA-MB-453; [7]) | IC50 (MDA-MB-231; [8]) | IC50 (PC3/TxR) | IC50 (PC3) | IC50 (PANC-1) | IC50 (RPMI-7951) | IC50 (M14; [9]) | IC50 (A375; [10]) | logP (logP) | IC50 (MDA-MB-231; [12]) | further results |
| --- | --- | --- | --- | --- | --- | --- | --- | --- | --- | --- | --- | --- | --- | --- |
| COc1ccc2c(c1)NC(=O)CN2c1nc(N)nc2c1CCC2 [Compound 12c, 4-(2-amino-6,7-dihydro-5H-cyclopenta[d]pyrimidin-4-yl)-7-methoxy-3,4-dihydroquinoxalin-2(1H)-one] | 1.7 ± 0.3 nM | ~2.01 nM | 5 ± 0.7 nM | 1.4 ± 0.4 nM | 2.3 ± 0.5 nM | 2.3 ± 0.3 nM | 3.8 ± 0.6 nM | 5.5 ± 1 nM | – | – | – | – | – | – |
| CCNc1nc(N2CC(=O)Nc3cc(OC)ccc32)c2cccnc2n1 [Compound 5u, 4-(2-(ethylamino)pyrido[2,3-d]pyrimidin-4-yl)-7-methoxy-3,4-dihydroquinoxalin-2(1H)-one] | – | – | – | – | – | – | – | – | 4.8 ± 0.8 nM | 5.4 ± 0.7 nM | 5.8 ± 1 nM | 2.51 | 6.7 ± 1.2 nM | IC50 (MDA-MB-468): 10.5 ± 1.6 nM; IC50 (MDA-MB-453; [11]): 4.5 ± 0.9 nM; IC50 [1]: 0.4 to 26 nM |
| COc1ccc2c(c1)NC(=O)CN2c1nc(OC)nc2c1CCC2 [Compound 12b, 7-methoxy-4-(2-methoxy-6,7-dihydro-5H-cyclopenta[d]pyrimidin-4-yl)-3,4-dihydroquinoxalin-2(1H)-one] | 5.3 ± 1.1 nM | ~3.2 nM | 9 ± 1.3 nM | 3.4 ± 0.8 nM | 7.5 ± 1.5 nM | 4.7 ± 0.7 nM | 7.2 ± 1.2 nM | 9.4 ± 1.5 nM | – | – | – | – | – | – |
| COc1ccc(N(C)c2nc(C)nc3ccccc23)cc1 [Verubulin, N-(4-methoxyphenyl)-N,2-dimethylquinazolin-4-amine, reference compound] | – | – | – | – | – | – | – | – | – | – | – | – | – | IC50 (M14; M14, read-out: IC50 ± SEM (nM) M14): 1 ± 0.1 nM; IC50 (MDA-MB-231/VxR): 2 ± 0.4 nM; IC50 (A375/TxR): 0.7 ± 0.1 nM; IC50 (A375; A-375, read-out: IC50 ± SEM (nM) A375, Table 2): 0.7 ± 0.1 nM; IC50 (MDA-MB-231; MDA-MB-231, read-out: IC50 ± SEM (nM) MDA-MB-231, Table 2): 1.9 ± 0.4 nM |
| COc1ccc2c(c1)NC(=O)CN2c1nc(SC)nc2c1CCC2 [Compound 10, 7-methoxy-4-(2-(methylthio)-6,7-dihydro-5H-cyclopenta[d]pyrimidin-4-yl)-3,4-dihydroquinoxalin-2(1H)-one] | 3.2 ± 0.5 nM | 3.4 ± 0.5 nM | 3.9 ± 0.6 nM | 1.4 ± 0.6 nM | 4.3 ± 0.7 nM | 1.6 ± 0.2 nM | 2.4 ± 0.4 nM | 3.4 ± 0.6 nM | – | – | – | – | – | – |
| COc1ccc2c(c1)NC(=O)CN2c1nc(Cl)nc(C)c1C [Compound 5q, 4-(2-chloro-5,6-dimethylpyrimidin-4-yl)-7-methoxy-3,4-dihydroquinoxalin-2(1H)-one] | – | – | – | – | – | – | – | – | > 1000 nM | > 1000 nM | > 1000 nM | 2.76 | > 1000 nM | IC50 (MDA-MB-468; Homo sapiens, MDA-MB-468): > 1000 nM; IC50 (MDA-MB-453; [11]): > 1000 nM; cytotoxic activity [1]: inactive |
| COc1ccc2c(c1)NC(=O)CN2c1nc(N2CCOCC2)nc2c1CCC2 [Compound 12e, 7-methoxy-4-(2-morpholino-6,7-dihydro-5H-cyclopenta[d]pyrimidin-4-yl)-3,4-dihydroquinoxalin-2(1H)-one] | 18.3 ± 3.7 nM | ~13.6 nM | 44.4 ± 7.1 nM | 17.6 ± 4 nM | 25.8 ± 4.6 nM | 14.4 ± 2.2 nM | 23.9 ± 3.6 nM | 56.2 ± 9 nM | – | – | – | – | – | – |
| COc1ccc2c(c1)NC(=O)CN2c1nc(Cl)nc2c1COC2 [Compound 5p, 4-(2-chloro-5,7-dihydrofuro[3,4-d]pyrimidin-4-yl)-7-methoxy-3,4-dihydroquinoxalin-2(1H)-one] | – | – | – | – | – | – | – | – | 27.2 ± 3.9 nM | 23.3 ± 3 nM | 31.8 ± 4.4 nM | 1.47 | 36.8 ± 4.5 nM | IC50 (MDA-MB-468): 22.8 ± 4.6 nM; IC50 (MDA-MB-453; Table 1, read-out: IC50 (nM) Breast MDA-MB-453): 19.3 ± 3.5 nM; IC50 [1]: 19 to 37 nM |
| COc1ccc(Nc2nc(OC)nc3c2CCC3)c(N)c1 [Compound 20, 4-methoxy-N1-(2-methoxy-6,7-dihydro-5H-cyclopenta[d]pyrimidin-4-yl)benzene-1,2-diamine] | – | – | – | – | – | – | – | – | – | – | – | – | – | cytotoxic potency [2]: little to no cytotoxic activity |
| COc1ccc2c(c1)NC(=O)CN2c1nc(N=C=S)nc2c1CCC2 [Compound 12l, 4-(2-isothiocyanato-6,7-dihydro-5H-cyclopenta[d]pyrimidin-4-yl)-7-methoxy-3,4-dihydroquinoxalin-2(1H)-one] | 2.6 ± 0.4 nM | ~3.3 nM | 7.3 ± 1.2 nM | 2.9 ± 0.6 nM | 4.9 ± 0.8 nM | 4.8 ± 0.7 nM | 6.3 ± 0.8 nM | 10.7 ± 2.3 nM | – | – | – | – | – | – |
| COc1ccc2c(c1)NC(=O)CN2c1nc(NC2CC2)nc2c1CCC2 [Compound 12j, 4-(2-(cyclopropylamino)-6,7-dihydro-5H-cyclopenta[d]pyrimidin-4-yl)-7-methoxy-3,4-dihydroquinoxalin-2(1H)-one] | 1.2 ± 0.3 nM | ~1.4 nM | 3.9 ± 0.6 nM | 1.1 ± 0.3 nM | 2.2 ± 0.4 nM | 0.2 nM | 0.6 nM | 3.4 ± 0.6 nM | – | – | – | – | – | half-life at 1 μg/mL (in vitro [3]): 13.6 min; microsomal CLint at 1 μg/mL (in vitro [3]): 51 µL/min/mg; half-life at 1 μg/mL (in vitro [4]): 80.3 min; microsomal CLint at 1 μg/mL (in vitro [4]): 8.68 µL/min/mg |
| COc1ccc2c(c1)NC(=O)CN2c1nc(NCCO)nc2c1CCC2 [Compound 12m, 4-(2-((2-hydroxyethyl)amino)-6,7-dihydro-5H-cyclopenta[d]pyrimidin-4-yl)-7-methoxy-3,4-dihydroquinoxalin-2(1H)-one] | 7 ± 1 nM | ~8.6 nM | 23.6 ± 3.5 nM | 6.4 ± 1.6 nM | 8.6 ± 1.2 nM | 15 ± 1.6 nM | 14.8 ± 1.8 nM | 43.1 ± 8.2 nM | – | – | – | – | – | – |
| COc1ccc2c(c1)NC(=O)CN2c1cc(C)nc2cccnc12 [Compound 5s, 7-methoxy-4-(2-methyl-1,5-naphthyridin-4-yl)-3,4-dihydroquinoxalin-2(1H)-one] | – | – | – | – | – | – | – | – | 14.4 ± 2.4 nM | 18.3 ± 2.9 nM | 15 ± 2.1 nM | 1.96 | 23.9 ± 4.1 nM | IC50 (MDA-MB-468; Homo sapiens, MDA-MB-468): 18.5 ± 4.1 nM; IC50 (MDA-MB-453; [11]): 12.9 ± 2.3 nM; IC50 [1]: 13 to 24 nM |
| COc1ccc2c(c1)NC(=O)CN2c1nc(-n2ccnc2)nc2c1CCC2 [Compound 12h, 4-(2-(1H-imidazol-1-yl)-6,7-dihydro-5H-cyclopenta[d]pyrimidin-4-yl)-7-methoxy-3,4-dihydroquinoxalin-2(1H)-one] | 5.8 ± 1.2 nM | ~5.7 nM | 15.5 ± 2.5 nM | 4.5 ± 1.2 nM | 8.4 ± 1.5 nM | 4.7 ± 0.7 nM | 8.2 ± 1.4 nM | 11.5 ± 2.3 nM | – | – | – | – | – | – |
| CNC(=O)C(=O)Nc1cc(OC)ccc1Nc1nc(SC)nc2c1CCC2 [Compound 21, N1-(5-methoxy-2-((2-(methylthio)-6,7-dihydro-5H-cyclopenta[d]pyrimidin-4-yl)amino)phenyl)-N2-methyloxalamide] | – | – | – | – | – | – | – | – | – | – | – | – | – | cytotoxic potency [2]: little to no cytotoxic activity |
| COc1ccc2c(c1)NC(=O)CN2c1nc(Cl)nc2c1CCC2 [Compound 5l, 4-(2-chloro-6,7-dihydro-5H-cyclopenta[d]pyrimidin-4-yl)-7-methoxy-3,4-dihydroquinoxalin-2(1H)-one] | – | – | – | – | – | – | – | – | 6.8 ± 2.5 nM | 5.9 ± 1.5 nM | 5.5 ± 0.7 nM | 2.74 | 25.7 ± 6.2 nM | IC50 (MDA-MB-468; Homo sapiens, MDA-MB-468): 5.6 ± 2.2 nM; IC50 (MDA-MB-453; [11]): 3.7 ± 1.2 nM; IC50 [1]: 0.4 to 26 nM |
| COc1ccc2c(c1)NC(=O)CN2c1ncnc2c1CCC2 [Compound 5n, 4-(6,7-dihydro-5H-cyclopenta[d]pyrimidin-4-yl)-7-methoxy-3,4-dihydroquinoxalin-2(1H)-one] | – | – | – | – | – | – | – | – | 14 ± 3.9 nM | 19.1 ± 5.3 nM | 13.4 ± 1.9 nM | 2.05 | 54 ± 9.9 nM | IC50 (MDA-MB-468; Homo sapiens, MDA-MB-468): 15.6 ± 3.8 nM; IC50 (MDA-MB-453; [11]): 7.3 ± 1.5 nM |
